Columns and labels:
[1] = test system: PARP and Pro-Caspase 3 in PC-3 cells; assay: PARP and Pro-Caspase 3 cleavage, western blot; assay type: cell-based, human; conditions: 100 nM for 0, 8 or 24 hours
Description: Total protein lysates were made and 20 μg of the lysates were then resolved under reducing/denaturing conditions and blotted onto nitrocellulose. The blots were then probed with anti-PARP or anti-caspase 3 antibodies followed by stripping and reprobing with an anti-actin antibody.

[2] = test system: chymotrypsin-like proteasome activity in packed whole blood lysate; assay: Whole blood proteasome activity after dosing (PWBL assay); assay type: in vivo, male Swiss-Webster mice; conditions: mice
Description: In brief, frozen whole blood samples were thawed on ice for one hour, and resuspended in 700 μL of ice cold 5 mM EDTA, pH 8.0 in order to lyse the cells by hypotonic shock. This represents approximately 2-3 times the volume of the packed whole blood cells. Lysis was allowed to proceed for one hour, and the cellular debris was removed by centrifugation at 14,000×g for 10 minutes. The supernatant (Packed Whole Blood Lysate, PWBL) was transferred to a fresh tube, and the pellet discarded. Protein concentration of the PWBL was determined by BCA assay (Pierce) using BSA as a standard.
Proteasome activity was determined by measuring the hydrolysis of a fluorogenic substrate specific for the chymotrypsin-like activity of proteasomes (suc-LLVY-AMC, Bachem Cat. I-1395). […] The rate of hydrolysis in this system is linear for at least one hour. The hydrolysis rate of each sample is then normalized to relative fluorescent units per milligram of protein (RFU/mg).
The vehicle control consisted of 2% DMSO in 10% solutol. […] Packed whole blood cells were collected by centrifugation, washed with PBS, and re-centrifuged. All samples were stored at −80° C. prior to the evaluation of the proteasome activity.
Male Swiss Webster mice (12/group weighing 20-25 g) were injected with LPS (2 mg/kg) by the i.p. route. […]

C[C@@]12OC(=O)[C@]1([C@@H](O)[C@@H]1C=CCCC1)NC(=O)[C@@H]2CCCl [Formula II-16, Salinosporamide A]
cleavage of PARP and Pro-Caspase 3 [1]: cleavage of PARP is noticeable at 24 hours
proteasomal activity in PWBL ([2]; i.v. or oral, blood 90 min after administration): profound decrease in proteasomal activity in PWBL
activity upon oral administration (PWBL proteasome) ([2]; oral): active upon oral administration

From US7572606B1 (Nereus Pharmaceuticals, Inc., priority 2005, dated 2009)
